Laboratory results from patent US5674490A, “Antibiotic GE1655 complex and its factors A, B, and C” (Gruppa Lepetit S.p.A., priority 1995, dated 1997).

Tested on: Candida albicans L145
Assay: Candida vaginitis in ovariectomized rats
Assay type: in vivo, ovariectomized female CD rats
Conditions: for Mean log10 cfu ± SD/sample: i.va. twice daily, after 3 days of treatment, GE1655 complex 10, miconazole 4 mg/rat per treat.
Procedure: The in vivo protective activity of the antibiotic GE1655 complex against Candida albicans in ovariectomized female CD rats (weighing 150-170 g, obtained from Charles River 7 days after surgery) was determined. Candida albicans L145 was grown overnight in Sabouraud dextrose broth (Difco) at 30° C. The culture was centrifuged at 6000 r.p.m. for 20 min at 4° C., the yeast was resuspended in nutrient broth N.2 (Oxoid) containing 15% (v/v) glycerol and stored at -80° C. After 7 days of acclimatization in a temperature and humidity controlled room, the animals received 4 mg of estradiol benzoate (Sigma) subcutaneously. Four days later they were infected by intravaginal (i.va.) instillation with 0.025 ml of thawed Candida albicans suspension (about 5×10^6 cfu/rat).
GE1655 complex and miconazole (Sigma) were dissolved in dimethylsulfoxide (DMSO) and then diluted 1:10 with PEG 400; this risulted in homogeneous suspensions. Animals received 0.1 ml of one of these suspensions i.va. twice daily for three days starting 24 h after the infection. Control animals were treated with the vehicle (10% DMSO in PEG 400).
The presence of Candida was determined by inserting a disposable 0.01 ml calibrated loop into the vagina. The sample was resuspended in 0.2 ml of sterile peptonized saline and cultivated on Sabouraud dextrose agar containing 100 mg/l of rifampicin to inhibit growth of bacterial contaminants.

Compound: Clc1ccc(COC(Cn2ccnc2)c2ccc(Cl)cc2Cl)c(Cl)c1 (stereo not drawn) [Miconazole, miconazole]
- vaginal load compared with the control group (2 experiments, 10 mg of GE1655 complex or 4 mg of miconazole): significantly lower (p<0.01)
- Mean log10 cfu ± SD/sample (exp. 1): 1.20 ± 1.01 log10 cfu/sample
- Mean log10 cfu ± SD/sample (exp. 2): 1.24 ± 0.86 log10 cfu/sample
